Where two headings read alike, the source gives them in different places.
How the values were obtained:
Type in all cases: cell-based, Human
[1] = system: HT-29; assay: MTT cell viability, HT-29; conditions: 72 h, MTT assay, mean ± SD (n = 6), read-out: half-maximal inhibitory concentration (IC50) HT-29
Experimental: (§1) The potential cytotoxicity of 24 candidate compounds was initially evaluated at a single concentration level (5 μM). Then a full dose-response curve was plotted for each compound against different colorectal cancer cell lines (HCT116 and HT-29) by MTT assay after 72 h treatments. 4-hydroxycoumarin, OSU-CG5, and OSU-CG12 were used as positive controls. […] Compounds 9b, 9c, 9f, 9i, 11b, and 11c were selected for further studies to determine the full dose-response survival curves using different concentrations (0.1–20 µM) against CRC cell lines and normal fibroblast cell line (F180) at different time points (Fig. 2A–2F and supplementary material Page S63 and S64).
(§2) Human colorectal carcinoma cell lines (HCT116) and (HT-29) were obtained from the European Collection of Cell Cultures (ECACC, UK). The cell lines were cultured in Roswell Park Memorial Institute medium (RPMI-1640, Sigma-Aldrich-St. Louis, MO, USA) supplemented with 10% fetal bovine serum (Sigma-Aldrich-St. Louis, MO, USA) and 1% penicillin/streptomycin (Sigma-Aldrich- Louis, MO, USA). F180 cell line (Human Normal Fibroblast), was kindly given by professor Ekkehard Dikomey (University Cancer Center, Hamburg University, Hamburg, Germany) and were cultured in Dulbecco’s Modified Eagle’s medium (DMEM, Sigma-Aldrich-St. Louis, MO, USA) supplemented with 10% fetal bovine serum (Sigma-Aldrich-St. Louis, MO, USA) and 1% penicillin/streptomycin (Sigma-Aldrich- Louis, MO, USA). All cell incubations were done at 37 °C in a humidified atmosphere of 5% CO2.
(§3) Cell viability was assessed using, 3-(4,5-dimethylthiazol-2-yl)-2,5-diphenyltetrazolium bromide (MTT) assay as previously described. In summary, cancer cell lines or F180 were seeded in complete medium at the density of 3 × 10^3/well and 5 × 10^3/well respectively in 96 well flat-bottom plates. After 24 h, cells were incubated with the candidate compounds at the indicated concentration for (24, 48 or 72 h). DMSO was used as vehicle control and 4-Hydroxycoumarin was purchased from (Sigma-Aldrich, St. Louis, MO, USA) and Cisplatin from Hospira UK Ltd. At the end of treatment, the media were aspirated from each well and incubated with 200 µL of MTT tetrazolium dye (Sigma-Aldrich, St. Louis, MO, USA) at a final concentration of 0.5 mg/ml for 2 h at 37 °C. The reduced MTT crystals were solubilized in 200 µl/well of DMSO and the absorbance was measured at 570 nm using a microplate reader (Thermo-Scientific, Vantaa, Finland).

[2] = system: HCT116; assay: Western blot analysis, HCT116; conditions: for expression of LC3A-II and LC3B-II: HCT116 (CRC cell lines)
Experimental: (§4) Based on this, the energy restriction mediated anticancer activity of the new coumarin tagged aminothiazole derivatives was investigated. The expression levels of PARP, p-Akt, Akt, p-AMPK, AMPK, β-TrCP, LC3A/B-I, LC3A/B-II, caspase-3, cyclin D1, and Bcl-2 proteins were determined by Western blot analysis after 72 h treatment of HT-29 and HCT116 at different concentrations based on the IC50 values of each compound (Fig. 3A,B). […] Moreover, the treatment with 9b and 9f induced caspase 3/7 activation, which was detected by caspase 3/7 activity assay and confirmed by Western blot. The activation of caspases was significant in 9b in both cell lines and significant with 9f in HCT116 cells only and minimal in HT-29 cells (Fig. 3C,D). On the other hand, both 9b and 9f induced dose-dependent proteolytic processing of PARP. […] Besides, the protein expression level of the anti-apoptotic protein, Bcl-2, was reduced in HCT116 upon treatment with both compounds.
Following 72 h of treatment, cells were lysed and the extracted proteins were quantified using DC protein assay kit (Bio-Rad, Hercules, CA, USA) following the manufacturer’s instructions. Proteins were resolved on 8% or 12% SDS-poly-acrylamide gels, then transferred onto a nitrocellulose membrane using a semi-dry transfer cell. The membranes were blocked in TBS-T containing 5% non-fat milk for 1 h and incubated overnight at 4 °C overnight with indicated primary antibodies (Cell Signaling Technologies, Beverly, MA, USA) and then incubated with goat anti-mouse or anti-rabbit secondary antibody (Cell Signaling Technologies, Beverly, MA, USA) for 1 h at room temperature. Detection was done using chemiluminescence substrate (Bio-Rad, Hercules, CA, USA). β-actin (Cell Signaling Technologies, Beverly, MA, USA) was used as a loading control.
The blots were captured with ChemiDoc Imaging System (Bio-Rad, Hercules, CA, USA) and bands were visualized with the Image Lab v5.2.1 software (Bio-Rad, Hercules, CA, USA).

[3] = system: colorectal cancer cell lines, HCT116 and HT-29; assay: MTT cell viability, colorectal cancer cell lines (summary statements); conditions: for anticancer activities in initial screening, in words: HT-29 and HCT116 cancer cell lines
Experimental: as §1, §2, §3

[4] = system: Caspase 3/7 activities in HT-29 cells; assay: Caspase 3/7 activity assay, HT-29; conditions: HT-29, 72 h
Experimental: as §4
(§5) Caspase-3/7 activities in HT-29 and HCT116 cells treated with candidate compounds were measured using Caspase-Glo 3/7 assay kit (Promega, Madison, WI, USA) following the manufacturer’s instructions. […] 50 µL of lysate and 50 µL of caspase substrate were added to a white opaque 96-well plate, and the luminescence was measured by Varioskan Flash multimode reader (Thermo-Scientific, Vantaa, Finland)

[5] = system: HCT116; assay: MTT cell viability, HCT116; conditions: 72 h, MTT assay, mean ± SD (n = 6), read-out: half-maximal inhibitory concentration (IC50) HCT116
Experimental: as §1, §2, §3

[6] = system: Caspase 3/7 activities in HCT116 cells; assay: Caspase 3/7 activity assay, HCT116; conditions: HCT116, 72 h
Experimental: as §4, §5

[7] = HCT116, higher concentrations, except at doses 1 and 2 µM where induced p-mTOR was observed

Compound	IC50 [1] [nM]	IC50 ([1]; Homo sapiens, HT-29, 72 h) [nM]	expression of LC3A-II and LC3B-II ([2]; 72 h, Western blot)	p-mTOR and p-p70S6K levels ([2]; HCT116, 0.5 µM, 72 h, Western blot)	AMPK activation through phosphorylation ([2]; HCT116, 72 h, Western blot)	PARP cleavage ([2]; HCT116, 72 h, Western blot)	expression of β-TrCP and cyclin D ([2]; HCT116, 72 h, Western blot)	protein expression level of Bcl-2 ([2]; HCT116, 72 h, Western blot)	p-mTOR and p-p70S6K levels [2, 7]	anticancer activities in initial screening, in words [3]	IC50 ([3]; both cell lines, summary statement) [nM]	activation of caspases (caspase 3/7) [4]	IC50 [5] [nM]	IC50 ([5]; Homo sapiens, HCT-116, 72 h) [nM]	activation of caspases (caspase 3/7) [6]	Akt phosphorylation ([2]; HCT116, high concentrations, 72 h, Western blot)
Cc1cc(=O)oc2cc(Nc3nc(-c4ccc(Br)cc4)cs3)ccc12 [Compound 9b, 7-(4-(4-Bromophenyl)thiazol-2-ylamino)-4-methyl-2H-chromen-2-one]	380 ± 44	530	induced the expression of LC3A-II and LC3B-II	initial increase	enhancement of AMPK activation	induced PARP cleavage	dose-dependent downregulation	reduced	decrease	significant anticancer activities	< 600	significant	530 ± 77	380	significant	–
Cc1cc(=O)oc2cc(Nc3nc(-c4cccc([N+](=O)[O-])c4)cs3)ccc12 [Compound 9f, 4-Methyl-7-(4-(3-Nitrophenyl)thiazol-2-ylamino)-2H-chromen-2-one]	3960 ± 506	2560	induced the expression of LC3A-II and LC3B-II	–	enhancement of AMPK activation	–	–	reduced	decrease	significant anticancer activities	–	minimal	2560 ± 553	3960	significant	induced Akt phosphorylation

From paper PMC7031302, “Design and synthesis of new energy restriction mimetic agents: Potent anti-tumor activities of hybrid motifs of aminothiazoles and coumarins” (Scientific Reports, 2020)
